The record followed here is ChEMBL document CHEMBL1128323, “Antifungal agents. 9. 3-Aryl-4-[alpha-(1H-imidazol-1-yl)arylmethyl]pyrroles: a new class of potent anti-Candida agents” (1995).

The structures appear in SMILES notation. Values after ≈ are worked out from the molar mass of the structure shown. Some results are limits rather than exact numbers.

As usually defined, the MIC is the lowest concentration that inhibits growth of the organism. A high value points to a need for much substance. The term MIC50 denotes the lowest concentration that inhibits either 50% of growth or 50% of the strains tested, depending on the study. Usually MIC90 stands for the lowest concentration that inhibits either 90% of growth or 90% of the strains tested, depending on the study. A low value points to higher susceptibility.

Common to all, as to assay type: functional
The test system of test [1] is Candida albicans. The test can be described thus: Inhibitory activity against Candida albicans (40 clinical isolates), determined at pH-7.2.
The subject of test [2] is Candida albicans. The test can be described thus: 50% inhibitory activity against Candida albicans (40 clinical isolates) determined at pH-7.2.
The test system of test [3] is Candida. Put plainly: Inhibitory activity against Candida. species. (40 clinical isolates), determined at pH-7.2.
The subject of test [4] is Candida albicans. The test can be described thus: Resistance against Candida. albicans (40 clinical isolates) at 256 ug/mL (pH=7.2), activity is expressed as R%.
The subject of test [5] is Candida albicans. Put plainly: Percent resistance against Candida albicans (40 clinical isolates) at 256 micro g/mL (pH=5.8), activity is expressed as R%.
Test [6] relates to Candida. The test can be described thus: Inhibitory activity against Candida. species. (40 clinical isolates), determined at pH-5.8.
The test system of test [7] is Candida. Put plainly: 50% inhibitory activity against the Candida. species (40 clinical isolates) was determined at pH-7.2.
Test [8] relates to Candida. The test can be described thus: 90% inhibitory activity against Candida. species (40 clinical isolates) determined at pH-7.2.
Test [9] relates to Candida albicans. The test can be described thus: Inhibitory activity against the Candida albicans (40 clinical isolates), determined at pH-7.2.
For test [10], the system named is Candida albicans. Put plainly: 50% inhibitory activity against Candida albicans (40 clinical isolates) determined at pH-5.8.
In test [11] the test system is Candida. Put plainly: Inhibitory activity against Candida. species (40 clinical isolates), determined at pH-5.8.
Test [12] has as its system Candida. Put plainly: Resistance against all Candida. species (40 clinical isolates) at 256 micro g/mL (pH=5.8). Activity is expressed as R%.
For test [13], the system named is Candida. Put plainly: Percent resistance against all Candida. species (40 clinical isolates) at 256 micro g/mL (pH=7.2), activity is expressed as R%.
Test [14] relates to Candida albicans. Put plainly: Inhibitory activity against the Candida albicans (40 clinical isolates), determined at pH-5.8.
Test [15] concerns Candida albicans. Put plainly: Inhibitory activity against Candida albicans (40 clinical isolates), determined at pH-5.8.
[16] abbreviates: Candida albicans, read-out: MIC50.

`Clc1ccc(C(c2c[nH]cc2-c2ccccc2)n2ccnc2)cc1Cl` (stereo unspecified): the MIC with Candida albicans [1] was determined as 41.9 µg/mL (≈ 114 µM); in the test on Candida [3] it was 191 µg/mL (≈ 519 µM); in the test with Candida [6] it was 114 µg/mL (≈ 311 µM); in the test with Candida albicans [15] it was 38.6 µg/mL (≈ 105 µM). Further, the MIC50 with Candida albicans [2] (setting [16]) came out at 16 µg/mL (≈ 43.4 µM); in the test on Candida [7], 128 µg/mL (≈ 348 µM); against Candida albicans [10] it was 16 µg/mL (≈ 43.4 µM); against Candida [11], 64 µg/mL (≈ 174 µM). Further, the R in the test on Candida albicans [4] came to 0%; in the test on Candida albicans [5], 0%; in the test on Candida [12], 0%; in the test with Candida [13], 20%. The MIC90 with Candida [8] came to 256 µg/mL (≈ 695 µM); in the test with Candida albicans [9], 64 µg/mL (≈ 174 µM); in the test on Candida [11], 64 µg/mL (≈ 174 µM); against Candida albicans [14], 64 µg/mL (≈ 174 µM).

As to `Clc1ccc(C(c2c[nH]cc2-c2ccccc2Cl)n2ccnc2)cc1` (stereo unspecified), the MIC with Candida albicans [1] was 9.1 µg/mL (≈ 24.7 µM); with Candida [3], 15 µg/mL (≈ 40.7 µM); in the test with Candida [6], 30.2 µg/mL (≈ 82 µM); against Candida albicans [15], 18.7 µg/mL (≈ 50.8 µM). Moreover, the MIC50 against Candida albicans [2] is 16 µg/mL (≈ 43.4 µM); in the test with Candida albicans [2] (setting [16]), 8 µg/mL (≈ 21.7 µM); in the test with Candida [7], 16 µg/mL (≈ 43.4 µM); in the test on Candida [11], 32 µg/mL (≈ 86.9 µM). The R in the test with Candida albicans [4], in the test on Candida albicans [5], in the test with Candida [12] and with Candida [13] was 0% throughout. In addition, the MIC90 was determined as 16 µg/mL (≈ 43.4 µM) with Candida [8], 16 µg/mL (≈ 43.4 µM) against Candida albicans [9], 64 µg/mL (≈ 174 µM) against Candida [11] and 32 µg/mL (≈ 86.9 µM) against Candida albicans [14].

As for `Cc1ccc(C(c2c[nH]cc2-c2ccc(Cl)cc2Cl)n2ccnc2)cc1` (stereo unspecified), the MIC against Candida albicans [1] is 13.1 µg/mL (≈ 34.3 µM); in the test with Candida [3] it was over 224 µg/mL; against Candida [6], 16.4 µg/mL (≈ 42.9 µM); with Candida albicans [15], 7.9 µg/mL (≈ 20.7 µM). The MIC50 was 8 µg/mL (≈ 20.9 µM) with Candida albicans [2] (setting [16]), 256 µg/mL (≈ 670 µM) against Candida [7], 8 µg/mL (≈ 20.9 µM) in the test with Candida albicans [10] and 16 µg/mL (≈ 41.9 µM) in the test on Candida [11]. Further, the R with Candida albicans [4] stood at 0%; with Candida albicans [5], 0%; with Candida [12] it was 0%; with Candida [13] it was 50%. For the same compound, the MIC90 in the test with Candida [8] was over 256 µg/mL; with Candida albicans [9], 16 µg/mL (≈ 41.9 µM); in the test with Candida [11], 32 µg/mL (≈ 83.7 µM); with Candida albicans [14] it was 16 µg/mL (≈ 41.9 µM).

Take `Clc1ccccc1-c1c[nH]cc1C(c1ccccc1)n1ccnc1` (stereo unspecified): the MIC against Candida albicans [1] is 19.2 µg/mL (≈ 57.5 µM); in the test on Candida [3], 22.6 µg/mL (≈ 67.7 µM); in the test with Candida [6] it was 78.2 µg/mL (≈ 234 µM); against Candida albicans [15], 43.8 µg/mL (≈ 131 µM). The MIC50 came to 32 µg/mL (≈ 95.9 µM) with Candida albicans [2], 16 µg/mL (≈ 47.9 µM) in the test on Candida albicans [2] (setting [16]), 32 µg/mL (≈ 95.9 µM) against Candida [7] and 64 µg/mL (≈ 192 µM) in the test with Candida [11]. Besides, the R in the test on Candida albicans [4], in the test with Candida albicans [5], in the test with Candida [12] and with Candida [13] was 0% each time. For the same compound, the MIC90 with Candida [8] was 64 µg/mL (≈ 192 µM); with Candida albicans [9], 32 µg/mL (≈ 95.9 µM); in the test with Candida [11], 32 µg/mL (≈ 95.9 µM); against Candida albicans [14] it was 64 µg/mL (≈ 192 µM).

For the compound `Fc1ccc(C(c2c[nH]cc2-c2ccc(Cl)c(Cl)c2)n2ccnc2)cc1` (stereo unspecified), the MIC with Candida albicans [1] turned out to be 7.2 µg/mL (≈ 18.6 µM); against Candida [3], 26.6 µg/mL (≈ 68.9 µM); in the test on Candida [6], 16.4 µg/mL (≈ 42.5 µM); in the test on Candida albicans [15], 7.2 µg/mL (≈ 18.6 µM). Moreover, the MIC50 was 4 µg/mL (≈ 10.4 µM) in the test on Candida albicans [2] (setting [16]), 32 µg/mL (≈ 82.8 µM) against Candida [7], 4 µg/mL (≈ 10.4 µM) in the test with Candida albicans [10] and 16 µg/mL (≈ 41.4 µM) against Candida [11]. For the same compound, the R in the test with Candida albicans [4], in the test with Candida albicans [5], in the test on Candida [12] and in the test on Candida [13] was 0% each time. Also, the MIC90 against Candida [8] was determined as 32 µg/mL (≈ 82.8 µM); in the test with Candida albicans [9], 16 µg/mL (≈ 41.4 µM); with Candida [11], 32 µg/mL (≈ 82.8 µM); against Candida albicans [14], 16 µg/mL (≈ 41.4 µM).

Take `O=[N+]([O-])c1ccc(C(c2c[nH]cc2-c2ccc(Cl)cc2)n2ccnc2)cc1` (stereo unspecified): the MIC is over 91.8 µg/mL against Candida albicans [1], over 91.8 µg/mL against Candida [3], over 355 µg/mL with Candida [6] and over 60.1 µg/mL with Candida albicans [15]. Further, the MIC50 is 32 µg/mL (≈ 84.5 µM) in the test with Candida albicans [2] (setting [16]), 32 µg/mL (≈ 84.5 µM) against Candida [7], 16 µg/mL (≈ 42.2 µM) in the test on Candida albicans [10] and over 256 µg/mL with Candida [11]. For the same compound, the R with Candida albicans [4] stood at 0%; with Candida albicans [5], 0%; with Candida [12] it was 60%; with Candida [13] it was 10%. Moreover, the MIC90 was 64 µg/mL (≈ 169 µM) with Candida [8], 64 µg/mL (≈ 169 µM) against Candida albicans [9], over 256 µg/mL with Candida [11] and 32 µg/mL (≈ 84.5 µM) with Candida albicans [14].
